Measured values: the NIST ThermoML archive (doi:10.1016/j.fluid.2017.05.024)
± gives the expanded uncertainty stated by the source.

Tests used:
[1] = 298.15 K, Liquid
[2] = xn = mol fraction of the nth substance listed; settings: 298.15 K, 100 kPa, Liquid, Vibrating tube method

Work on `OCCO` [1,2-ethanediol] yielded a mass density ([1]; 100 kPa, Vibrating tube method) of 1112.1 ± 1.4 kg/m3.

`OCCO` [1,2-ethanediol] + CCCC[N+](CCCC)(CCCC)CCCC.[Br-] gave a mass density ([2]; x2 = 0) of 1112.1 ± 1.4 kg/m3.

Work on `c1c[nH]cn1` [1H-imidazole] + CCCC[N+](CCCC)(CCCC)CCCC.[Br-] yielded a mass density ([2]; x2 = 0.333) of 1092.2 ± 1 kg/m3.

`OCC(O)CO` [glycerol] showed a mass density ([1]; 101.33 kPa, Pycnometric method) of 1262 ± 2 kg/m3.

`CCCC[N+](CCCC)(CCCC)CCCC.[Br-]` [tetrabutylammonium bromide] + OCC(O)CO gave a mass density ([2]; x1 = 0.2) of 1137.1 ± 1.3 kg/m3.

With `CCCC[N+](CCCC)(CCCC)CCCC.[Br-]` [tetrabutylammonium bromide] + OCCO the mass density ([2]; x1 = 0.2) was 1069.1 ± 1.2 kg/m3.
